This note sets out measurements from US20230026437A1, “BACTERIA-ASSOCIATED VOLATILE ORGANIC COMPOUNDS” (THE STATE OF ISRAEL, MINISTRY OF AGRICULTURE & RURAL …, priority 2019, published 2023).

For assay [1], the system named is Macrophomina phaseolina, Rhizoctonia solani, Pythium aphanidermatum and Sclerotinia sclerotiorum. In words: Antifungal activity of synthetic VOCs, plate assay. It counts as cell-based. How it is done: Antifungal activity of synthetic VOCs. The GC-MS identified VOCs produced by NYG5 were screened through literature for their any biological activity and the novel compound which were not tested so far were purchased as pure standard compound of the most representative VOCs from Hollan Moran Ltd., Israel. The pure synthetic compounds were tested against four different fungal pathogens (Macrophomina phaseolina, Rhizoctonia solani, […]) in small plastic petri plates. A freshly growing mycelial agar bid (4 mm) were placed in the center of PDA medium and one sterile paper disc (10 mm) were kept on the lid of the plate. After fungal inoculation, the tested compounds (10 μl for each) were placed on sterile filter disc and plates were double sealed with parafilm in inverted position having mycelium disc on the top side of the plate to check the direct effect of volatiles on mycelial growth. Three individual replicates were maintained for each treatment including control having sterile filter disc and solvent (70% ethanol) in which compounds were diluted. […] The plates were incubated at 25° C. and radial growth of fungal mycelial was measured at day interval until 3 days.

In another assay the test system is PR1 gene. In words: Effect of C3 on PR gene expression in A. thaliana (qRT-PCR). The class given is in vivo, Arabidopsis thaliana. To be noted: leaves, 7 days of exposure, no direct contact. The text has this:
(§1) Effect of 2,3-Hexanedione (C3) on PR gene expression in A. thaliana. An individual experiment was designed similarly as described above to check the effect of 2,3-Hexanedione on PR gene induction in A. thaliana. The plants were exposed with 2,3-Hexanedione in a two compartment plates for one week. After one week, leaves from individual plants of each replicate were pooled separately for RNA isolation. Total RNA was isolated from the leaf tissue of plant using RNA isolation kit (Nucleo spin RNA Plant, MACHEREY-NAGEL) according the manufacturer's instruction. Before starting the protocol, leaves were ground under liquid N2 and 100 mg of grinded tissue was used for RNA isolation. RNA quantification was done using Qubit analyzer. Purified RNA was used for cDNA synthesis using first strand Invitrogen cDNA synthesis kit according the manufacturer's instructions with […] of RNA. Synthesized cDNA was diluted to 1000 times and 10 ul aliquots were stored for gene expression analysis. The relative gene expression level of PR1, PR2, PR5 and Actin (as internal control) were quantified for C3 exposed and control plants. For qRT PCR a 20 ul reaction was programmed at 95° C. denaturation for 1 min, followed by 40 cycles of amplification at 95° C. for 5s, 60° C. for 30s, and 72° C. for 30s.
In general terms: Real-time PCR tracks product formation cycle by cycle.

In a further assay the test system is PR5. Described as above. It counts as in vivo, Arabidopsis thaliana. The following applies: leaves, 7 days of exposure, no direct contact.
Text: as §1

The next assay deals with PR2 gene. Described as above. The class given is in vivo, Arabidopsis thaliana. To be noted: leaves, 7 days of exposure, no direct contact.
Text: as §1

A further assay deals with Macrophomina. Kind of assay: Effect of C3 on fungal morphology (actively growing mycelium). The class given is cell-based, Macrophomina phaseolina. The following applies: C3 exposure, plate assay.
For the next assay, the system named is N. tabacum. Kind of assay: Effect of C3 on tobacco seedlings growth, two-compartment plate. To be noted: 0.01 and 0.05 ppm, 14 days of growth. It counts as in vivo, Nicotiana tabacum. From the text:
Seeds of N. tabacum were placed on MS agar media in a two-compartment plate with C3 in different concentrations on a sterile paper disk on the other half of the plate without direct contact between the compartments. In the control treatments, a sterile disk with ethanol was used.

The subject of assay [2] is Fusarium oxysporum f sp. Cubense. Kind of assay: C3 against Fusarium oxysporum f sp. Cubense in-vitro. It counts as cell-based.
In a further assay the test system is Arabidopsis thaliana. In words: Effect of 2,3-Hexanedione (C3) on A. thaliana growth, two-compartment plate. It counts as in vivo. The following applies: 2 weeks of exposure. As to the method: Experimental set up for evaluation of 2,3-Hexanedione (C3) effect on Arabidopsis thaliana. Plant material and seed germination. A. thaliana (Ecotype Col-1) seeds were obtained from ARO Volcani center. The seeds were surface sterilized thrice with sterile distilled water and kept at 4° C. till 48 hours for stratification in dark on moist filter paper in petri plate. After two days of stratification the seeds were placed for germination on Murashige and Skoog (MS) medium with vitamins, 3% sucrose (30 g/1), and 0.03% phytagel (pH 5.7) for 3 days at 23° C. Effect of 2,3-Hexanedione (C3) on A. thaliana growth. Effect of 2,3-Hexanedione on A. thaliana development was evaluated in-vitro conditions in a two-compartment plate assay. Uniformly germinated seeds (5) were transplanted on MS medium in one side of compartment plate and another compartment was used to place the tested compound C3 similarly with other experiments. […] The control plants were maintained without any compound in two compartment petri plates. The plants were grown under 14-hour day/10-hour night cycles at 23° C. for 2 weeks and growth parameters were observed.

Assay [3] concerns Meloidogyne javanica larvae. Kind of assay: In-vitro nematicidal activity of 2,3-Hexanedione (C3), two-compartment plate. To be noted: 2 days of exposure, no direct contact. It counts as in vivo. The text has this:
In-vitro nematicidal activity of 2, 3-Hexanedione (C3). Nematicidal efficacy of 2,3-Hexanedione had been tested against Meloidogyne javanica larvae. M. javanica eggs were extracted from the infected root of tomato Lycopersicon esculentum using standard protocol. The experiment was set up in a two-compartment plate to test the nematicidal activity of C3 compound against M. javanica larvae. One small glass vial was placed in one-half of compartment having 300 M. javanica larvae in 1000 of 0.001 M IVIES and sterile filter disc were kept in another compartment. The discs were spot with 10 μl of different concentration (0.05 and 0.5 ppm) of C3 compound and double sealed with parafilm. Each treatment had three independent replicates with control (without any compound only sterile disc). After 2 days of incubation M. javanica were carefully washed through 30 μm sieve and allowed to pass the sieve for 3 hours. All incubations were performed in the dark at 25±1° C. Survived M. javanica were counted under microscope.

The test system of assay [4] is Fusarium oxysporum spores. Kind of assay: Effect of 2,3-Hexanedione (C3) on fungal spores in liquid. It counts as cell-based. As to the method: Effect of 2, 3-Hexanedione (C3) on fungal spores in liquid. To test the effect of C3 on spore germination, fungal spores were harvested after 3 days growth of Fusarium oxysporum in Potato Dextrose Broth medium with continuous shaking at 25° C. To collect the spores, 3 days old grown mycelial in broth medium was filtered through sterilized glass wools and filtrate was centrifuged at 4000 rpm. The supernatant was discarded, and pellet was suspended in sterilized water to a dilution of 10^6 (spores/ml) and counted through hemocytometer. Spore inhibition test was performed in 1.5 ml Eppendorf tube having 100 μl of 5×10^5 spores and mixed with a final concentration of 1 ppm, 10 ppm and 100 ppm of C3 compound. The tubes were tightly closed and sealed with parafilm and incubated at 25° C. Spore germination was observed under compound microscope by placing 20 μl of solution droplet from control and treatment on glass slide. The germination was reconfirmed by growing the 20 μl of solution from tube on PDA simultaneously to check the mycelial growth. All experiments had three individual replicates and repeated twice having identical conditions.

Entries after “also recorded” stand apart in the source; their conditions may differ.

With `CC(=O)CCC(C)C` [Compound C2, 5-Methyl-2-hexanone], the “effect on mycelial growth” value in [1] (higher concentrations, 100 and 500 ppm) is recorded as “inhibitory effect”.

As to `CCCC(=O)C(C)=O` [Compound C3, 2,3-Hexanedione], the “induction of PR1 gene” value with PR1 gene stood at 3 fold. For the same compound, the “PR5 at transcriptional level” value in the assay on PR5 is reported as “no significant difference”. For the same compound, the “upregulation of PR2 gene transcript” value with PR2 gene was found to be 5 fold. In addition, the “effect on actively-growing mycelia” value in the assay with Macrophomina is “mycelium growth inhibition”. For the same compound, in the assay with N. tabacum, the plant biomass result is on record as “significantly enhanced” and the primary roots length result is recorded as “longer”. Also, in assay [2] (50 ppm), the “effect against the fungus” value is listed as “inhibitory effect”. Further, the “effect against the fungus” value in assay [2] (200 ppm) is reported as “lethal effect”. For the same compound, the effect on fungi result in [1] (0.5 ppm) is on record as “lethal”. In addition, the “effect of volatile exposure on all tested fungal pathogens” value in [1] (volatile exposure) was “fungicidal effect”. The “effect on plant growth parameters” value with Arabidopsis thaliana (0.005 ppm and 0.5 ppm) is listed as “did not show any effect”. Also, in the assay with Arabidopsis thaliana (0.05 ppm), the “effect on plant growth” value is listed as “enhanced the growth; also recorded: significant increase”. Besides, the larval viability result in assay [3] (0.05 ppm) was “significantly reduced”. Besides, in [3] (0.5 ppm), the nematicidal activity is reported as 80%. Besides, in [4] (1 ppm in liquid, at least for 3 days), the germination of spores result is “no germination”. The “growth of treated spores on PDA medium” value in assay [4] (C3-treated spores plated on PDA) is recorded as “no growth was observed”.
